US20110172147A1, “NEUROPEPTIDE-2 RECEPTOR (Y-2R) AGONISTS” (priority 2009, published 2011)

Assays:
Assay type in all cases: cell-based
[1] = target: T1, Y1R (Homo sapiens, UniProt P25929); test: CaFlux Assay (FLIPR), Y1R
T1 sequence (P25929 1-384): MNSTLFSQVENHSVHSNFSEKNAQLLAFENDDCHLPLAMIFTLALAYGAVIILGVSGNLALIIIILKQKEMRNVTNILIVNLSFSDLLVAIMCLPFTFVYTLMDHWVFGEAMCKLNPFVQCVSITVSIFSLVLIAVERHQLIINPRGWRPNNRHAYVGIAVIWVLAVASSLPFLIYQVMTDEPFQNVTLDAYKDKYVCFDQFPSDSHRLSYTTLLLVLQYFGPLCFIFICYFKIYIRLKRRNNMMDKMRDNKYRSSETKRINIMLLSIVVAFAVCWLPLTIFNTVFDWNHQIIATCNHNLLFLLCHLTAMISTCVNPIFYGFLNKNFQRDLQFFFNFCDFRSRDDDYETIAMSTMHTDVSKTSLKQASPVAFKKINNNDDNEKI

[2] = target: Y4R (Homo sapiens, UniProt P50391); test: CaFlux Assay (FLIPR), Y4R
Chain of Y4R (P50391 whole entry): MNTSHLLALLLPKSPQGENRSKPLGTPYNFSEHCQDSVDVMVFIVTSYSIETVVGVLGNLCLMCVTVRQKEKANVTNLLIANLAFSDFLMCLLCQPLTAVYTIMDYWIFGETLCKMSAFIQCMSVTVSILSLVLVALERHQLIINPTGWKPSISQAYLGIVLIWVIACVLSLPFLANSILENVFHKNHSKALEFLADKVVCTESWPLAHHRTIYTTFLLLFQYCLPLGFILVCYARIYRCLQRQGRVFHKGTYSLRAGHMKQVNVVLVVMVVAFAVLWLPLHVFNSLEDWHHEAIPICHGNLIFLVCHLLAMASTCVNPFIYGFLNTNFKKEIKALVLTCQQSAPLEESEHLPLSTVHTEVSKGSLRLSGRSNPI

[3] = target: T2, Y5R (Homo sapiens, UniProt Q15761); test: CaFlux Assay (FLIPR), Y5R
T2 sequence (Q15761 1-445): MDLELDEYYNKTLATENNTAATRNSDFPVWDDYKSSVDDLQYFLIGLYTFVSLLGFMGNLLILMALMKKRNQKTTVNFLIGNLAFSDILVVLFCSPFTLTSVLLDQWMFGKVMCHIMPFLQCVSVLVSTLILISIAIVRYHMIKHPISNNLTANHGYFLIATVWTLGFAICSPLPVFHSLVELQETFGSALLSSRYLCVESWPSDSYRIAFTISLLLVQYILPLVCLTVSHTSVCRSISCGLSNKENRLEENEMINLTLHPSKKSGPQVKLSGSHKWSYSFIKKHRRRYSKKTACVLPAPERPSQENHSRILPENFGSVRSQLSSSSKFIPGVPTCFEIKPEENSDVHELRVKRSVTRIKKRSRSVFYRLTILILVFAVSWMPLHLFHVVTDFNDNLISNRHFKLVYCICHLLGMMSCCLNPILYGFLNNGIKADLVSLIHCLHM

[4] = target: T3, hNPY2R (Homo sapiens, UniProt P49146); test: cAMP Agonist Assay, HEK293/hNPY2R; set-up: expressed in transfected cells; host or cells: HEK293/hNPY2R (G418 selection)
T3 sequence (P49146 1-381): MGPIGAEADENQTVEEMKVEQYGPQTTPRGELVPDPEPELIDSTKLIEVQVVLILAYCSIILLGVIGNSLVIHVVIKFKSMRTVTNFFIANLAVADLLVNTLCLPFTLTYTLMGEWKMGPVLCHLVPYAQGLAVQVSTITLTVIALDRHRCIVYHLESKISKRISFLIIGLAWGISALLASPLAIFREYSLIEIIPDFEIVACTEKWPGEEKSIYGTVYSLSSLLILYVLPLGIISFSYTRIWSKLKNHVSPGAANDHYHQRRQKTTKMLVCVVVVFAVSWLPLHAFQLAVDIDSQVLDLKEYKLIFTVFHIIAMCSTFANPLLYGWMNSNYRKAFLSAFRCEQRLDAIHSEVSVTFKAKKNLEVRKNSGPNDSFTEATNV
Procedure, shortened: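 Intracellular cAMP quantified by luminescent competitive ELISA after a 30 min room-temperature treatment of overnight-plated HEK293/hNPY2R cells with compound in medium containing 5 μM forskolin, 0.5 mM IBMX and 1.1% DMSO; four replicates per concentration.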

[5] = target: T3, hNPY2R; test: CaFlux Assay (FLIPR), Y2R; set-up: expressed in transfected cells; host or cells: HEK-293 stably transfected with G protein chimera Gαqi9
Procedure, shortened: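 Stable HEK-293/Gαqi9 clones expressing receptor, pre-loaded 1 h at 37 °C with calcium dye containing 5 mM probenecid. Test compound in HBSS with 0.05% BSA and 1% DMSO added on FLIPR; baseline-corrected peak fluorescence taken as % of positive-control maximum.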

Row | SMILES | EC50 [1] [nM] | EC50 [2] [nM] | EC50 [3] [nM] | EC50 [4] [nM] | EC50 [5] [nM]
1 | CCCCCCCCCCCCCCCC(=O)NCCCCCC(=O)NCCCC[C@H](NC(=O)[C@@H](NC(=O)CCOCCOCCOCCOCCOCCOCCOCCOCCOCCOCCOCCOC)[C@@H](C)CC)C(=O)N1CCN(c2ccc3ncn(CC(=O)N[C@@H](CCCNC(=N)N)C(=O)N[C@@H](Cc4c[nH]cn4)C(=O)N[C@@H](Cc4ccc(O)cc4)C(=O)N[C@@H](CC(C)C)C(=O)N[C@@H](CC(N)=O)C(=O)N[C@@H](Cc4c[nH]c5ccccc45)C(=O)N[C@H](C(=O)N[C@H](C(=O)N[C@@H](CCCNC(=N)N)C(=O)N[C@@H](CCC(N)=O)C(=O)N(C)[C@@H](CCCNC(=N)N)C(=O)N[C@@H](Cc4ccc(O)cc4)C(N)=O)[C@@H](C)O)C(C)C)c(=O)c3c2)CC1 [Example 9] | > 5000 | > 5000 | 1030 | 0.08 | 0.025
2 | CCCCCCCCCCCCCCCC(=O)NCCCCCC(=O)N[C@H](C(=O)N[C@@H](CCCCNC(=O)CCOCCOCCOCCOCCOCCOCCOCCOC)C(=O)N1CCN(c2ccc3ncn(CC(=O)N[C@@H](CCCNC(N)=O)C(=O)N[C@@H](Cc4c[nH]cn4)C(=O)N[C@@H](Cc4ccc(O)cc4)C(=O)N[C@@H](CC(C)C)C(=O)N[C@@H](CC(N)=O)C(=O)N[C@@H](Cc4c[nH]c5ccccc45)C(=O)N[C@H](C(=O)N[C@H](C(=O)N[C@@H](CCCNC(=N)N)C(=O)N[C@@H](CCC(N)=O)C(=O)N(C)[C@@H](CCCNC(=N)N)C(=O)N[C@@H](Cc4ccc(O)cc4)C(N)=O)[C@@H](C)O)C(C)C)c(=O)c3c2)CC1)[C@@H](C)CC [Example 30] | > 6000 | > 6000 | 5690 | 0.47 | 0.143
3 | CCCCCCCCCCCCCCCCCCCC(=O)N[C@@H](CCC(=O)N[C@@H](CCC(=O)N[C@H](C(=O)N[C@@H](CCCCNC(=O)CCOCCOCCOCCOCCOCCOCCOCCOCCOCCOCCOCCOC)C(=O)N1CCN(c2ccc3ncn(CC(=O)N[C@@H](CCCNC(=N)N)C(=O)N[C@@H](Cc4c[nH]cn4)C(=O)N[C@@H](Cc4ccc(O)cc4)C(=O)N[C@@H](CC(C)C)C(=O)N[C@@H](CC(N)=O)C(=O)N[C@@H](Cc4c[nH]c5ccccc45)C(=O)N[C@H](C(=O)N[C@H](C(=O)N[C@@H](CCCNC(=N)N)C(=O)N[C@@H](CCC(N)=O)C(=O)N(C)[C@@H](CCCNC(=N)N)C(=O)N[C@@H](Cc4ccc(O)cc4)C(N)=O)[C@@H](C)O)C(C)C)c(=O)c3c2)CC1)[C@@H](C)CC)C(=O)O)C(=O)O [Example 58] | > 9000 | > 9000 | 4180 | 0.21 | 0.114
4 | CCCCCCCCCCCCCCCCCCCC(=O)N[C@@H](CCC(=O)O)C(=O)N[C@@H](CCC(=O)O)C(=O)N[C@H](C(=O)N[C@@H](CCCCNC(=O)CCOCCOCCOCCOCCOCCOCCOCCOCCOCCOCCOCCOC)C(=O)N1CCN(c2ccc3ncn(CC(=O)N[C@@H](CCCNC(N)=O)C(=O)N[C@@H](Cc4c[nH]cn4)C(=O)N[C@@H](Cc4ccc(O)cc4)C(=O)N[C@@H](CC(C)C)C(=O)N[C@@H](CC(N)=O)C(=O)N[C@@H](Cc4c[nH]c5ccccc45)C(=O)N[C@H](C(=O)N[C@H](C(=O)N[C@@H](CCCNC(=N)N)C(=O)N[C@@H](CCC(N)=O)C(=O)N(C)[C@@H](CCCNC(=N)N)C(=O)N[C@@H](Cc4ccc(O)cc4)C(N)=O)[C@@H](C)O)C(C)C)c(=O)c3c2)CC1)[C@@H](C)CC [Example 45] | > 6000 | > 6000 | > 6000 | 0.3 | 0.158
5 | CCCCCCCCCCCCCCCCCCCC(=O)N[C@@H](CCC(=O)N[C@@H](CCC(=O)NCCCC[C@H](NC(=O)[C@@H](NC(=O)COCCOCCOC)[C@@H](C)CC)C(=O)N1CCN(c2ccc3ncn(CC(=O)N[C@@H](CCCNC(=N)N)C(=O)N[C@@H](Cc4c[nH]cn4)C(=O)N[C@@H](Cc4ccc(O)cc4)C(=O)N[C@@H](CC(C)C)C(=O)N[C@@H](CC(N)=O)C(=O)N[C@@H](Cc4c[nH]c5ccccc45)C(=O)N[C@H](C(=O)N[C@H](C(=O)N[C@@H](CCCNC(=N)N)C(=O)N[C@@H](CCC(N)=O)C(=O)N(C)[C@@H](CCCNC(=N)N)C(=O)N[C@@H](Cc4ccc(O)cc4)C(N)=O)[C@@H](C)O)C(C)C)c(=O)c3c2)CC1)C(=O)O)C(=O)O [Example 22] | > 6000 | > 6000 | 1510 | 0.065 | 0.298
